Test results as given in US7122569B2, “Ethylene glycol esters as photoactive agents” (priority 1997, dated 2006).

Assays:
[1] = test system: L1210 cells; assay: In vitro photocytotoxicity on L1210 cells, 690 nm light 5 J/cm^2, MTT; type: cell-based, murine; settings: 690 nm 5 J/cm^2
Method: (§1) Either L1210 cells or the dendritic cell line D2SC/1 was incubated for one hour at 37° C. with either A-EA6 or BPD-MA. After removal of excess drug, the cells were exposed to 690 nm light at 5 J/cm^2 light. Cell survival was determined 18–24 hours later using the MTT colorimetric assay described in Example 5. Percent cells killed was calculated by reference to cells exposed to light only. […] The open circles represent A-EA6 plus serum; the closed circles represent BPD-MA plus serum; open squares represent A-EA6 in the absence of serum; and closed squares represent BPD-MA in the absence of serum.

[2] = test system: M1 tumors; assay: In vivo photodynamic therapy in mice harboring M1 tumors, tumor-free on day 7; settings: 1 mg/kg IV, 50 J/cm^2 690 nm
Description: This was followed by whole body irradiation with 50 J/cm^2 of 690 nm laser light at various times after administration of the drug.

[3] = test system: caspases; assay: Caspase activation in HL-60 cells after PDT; type: cell-based
Method: The effect on caspase activation in HL-60 cells was also measured. […] This effect is desirable as it is associated with apoptosis. Using apoptosis to remove unwanted cells causes the least effect on surrounding normal cells and tissues.

[4] = test system: MHC I receptors; assay: Surface expression of MHC I receptors on dendritic cells after PDT, flow cytometry; type: cell-based; settings: 690 nm 5 J/cm^2, 3 hours post-treatment
Method: The cells were treated with 690 nm light at 5 J/cm^2 and then labeled with the appropriate antibody 3 hours post-treatment and assessed by flow cytometry. The results were measured as the percent of the mean channel fluorescence intensity for light-treated control cells.

[5] = test system: antigen-induced ear swelling; assay: Immunomodulatory activity, whole-body PDT, suppression of ear swelling; type: in vivo, mice; settings: red LED light 15 J/cm^2
Method: Flanks of control and test mice were painted with the antigen DMFB and their ears were challenged 5 days later by pasting with the same compound. […] The percent suppression of ear swelling was calculated in comparison to controls.

[6] = test system: mitogenic pathway kinase p70 S6K; assay: PDT effect on mitogenic pathway kinase in HL-60 cells; type: cell-based; settings: sublethal concentrations
Description: (§2) The conditions of the study set forth in Example 11 were repeated using HL-60 cells as the target and comparing the effects of A-EA6 and BPD-MA on cytotoxicity, on the mitogenic pathway kinase p70 S6K, and on the stress pathway kinases c-jun and HSP27.

[7] = test system: stress pathway kinases c-jun and HSP27; assay: PDT effect on stress pathway kinases in HL-60 cells; type: cell-based; settings: sublethal concentrations
Description: as §2

[8] = test system: dendritic cell line D2SC/1; assay: In vitro photocytotoxicity on dendritic cell line D2SC/1, 690 nm light 5 J/cm^2, MTT; type: cell-based; settings: dendritic cells, 5% fetal calf serum, 690 nm 5 J/cm^2
Method: as §1

[9] = test system: HL-60 cells; assay: DNA fragmentation in HL-60 cells after PDT; type: cell-based

## C=Cc1c(C)c2cc3nc(cc4[nH]c(cc5nc(cc1[nH]2)C(C)=C5CCC(=O)OCCO)c(CCC(=O)OCCO)c4C)C1(C)C3=CC=C(C(=O)OC)C1C(=O)OC (stereo not shown) [A-EA6]
[1]; absence of serum
  cytotoxicity compared with BPD-MA: comparable cytotoxicity to BPD-MA
[1]; presence of serum
  cytotoxicity compared with BPD-MA: markedly more toxic
[2]; irradiation 15 min post i.v.
  Day 7 tumor-free animals: 2/2
[2]; irradiation 30 min post i.v.
  Day 7 tumor-free animals: 6/6
[3]
  caspase activation compared with BPD-MA: stronger activation of caspases
[4]; 1 ng/ml
  reduction of MHC I mean channel fluorescence vs light-treated control cells: approximately 25%
[4]; 2.5 ng/ml
  reduction of MHC I mean channel fluorescence vs light-treated control cells: approximately 25%
[5]; 0.3 mg/kg IV
  Percent suppression of ear swelling: 59%
[5]; 1.0 mg/kg IV
  Percent suppression of ear swelling: 68%
[6]
  inhibition of mitogenic pathway kinases compared with BPD-MA: stronger inhibition of the mitogenic pathway kinases
[7]
  activation of stress pathway kinases compared with BPD-MA: stronger activation of the stress pathway kinases
[8]
  LD50: 2.7 ng/mL
[9]
  percent DNA fragmentation compared with BPD-MA: effective at lower concentrations than BPD-MA
